Several values for one entry are separate records, joined by “and”; a condition that tells them apart may be missing. Equal values may be shown once. Entries after “also recorded” stand apart in the source; their conditions may differ. Read-outs that look alike come from different tables or passages of the source.

One series has as its system MC38 murine colon tumor. The series is described as follows: MC38 syngeneic tumor model. It counts as in vivo, mice.
For series [1], the system named is 4T1 murine triple-negative breast tumors. The series is described as follows: 4T1 syngeneic tumor model. It counts as in vivo, mice. The settings on record: 50 mg/kg QD, FOTO.
Protocol: (§1) All mice were used between 6 and 7 weeks of age. […] Tumor cells were detected as free of Mycoplasma spp prior to injection into animals. […] Tumor growth was measured with an electronic caliper, and volumes were calculated as L × W × W/2. Tumor size and animal body weight were measured once a week after tumor cell inoculation. Tumor growth inhibition (% TGI) = [1 – ΔT/ΔC] × 100, where ΔT is the difference of average tumor volume on the measured day and day 0 of treated groups and ΔC is the difference of average tumor volume on the measured day and day 0 of control groups.
A further series concerns the target T1, MER (Homo sapiens, UniProt Q12866).
T1 construct: A purified kinase (MER or AXL) was incubated with a compound or DMSO
T1 sequence (Q12866 21-999): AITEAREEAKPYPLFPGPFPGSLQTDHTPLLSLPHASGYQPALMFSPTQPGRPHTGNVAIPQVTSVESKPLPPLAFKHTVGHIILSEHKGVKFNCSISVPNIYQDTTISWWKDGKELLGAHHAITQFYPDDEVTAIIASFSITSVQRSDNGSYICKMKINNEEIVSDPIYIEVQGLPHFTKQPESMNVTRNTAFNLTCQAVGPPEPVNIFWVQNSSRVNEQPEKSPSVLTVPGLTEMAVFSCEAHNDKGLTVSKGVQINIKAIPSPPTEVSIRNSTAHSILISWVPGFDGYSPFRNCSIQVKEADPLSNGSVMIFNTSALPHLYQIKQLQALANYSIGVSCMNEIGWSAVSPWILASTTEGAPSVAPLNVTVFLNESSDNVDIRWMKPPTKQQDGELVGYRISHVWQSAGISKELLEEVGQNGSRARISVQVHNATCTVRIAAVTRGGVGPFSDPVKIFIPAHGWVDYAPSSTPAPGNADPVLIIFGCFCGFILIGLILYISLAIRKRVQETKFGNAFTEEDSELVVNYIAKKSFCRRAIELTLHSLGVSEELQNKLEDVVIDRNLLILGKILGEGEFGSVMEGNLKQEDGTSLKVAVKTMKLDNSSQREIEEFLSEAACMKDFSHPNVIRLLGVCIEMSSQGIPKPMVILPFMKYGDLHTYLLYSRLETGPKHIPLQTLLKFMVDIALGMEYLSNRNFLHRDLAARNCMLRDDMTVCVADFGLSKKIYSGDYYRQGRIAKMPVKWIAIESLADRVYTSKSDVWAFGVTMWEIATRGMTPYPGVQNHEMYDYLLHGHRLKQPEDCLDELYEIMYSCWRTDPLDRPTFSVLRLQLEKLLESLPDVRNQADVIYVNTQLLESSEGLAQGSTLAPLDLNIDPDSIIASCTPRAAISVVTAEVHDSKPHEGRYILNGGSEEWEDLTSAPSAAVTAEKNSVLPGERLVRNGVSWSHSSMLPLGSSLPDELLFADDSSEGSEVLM
The series is described as follows: MER enzyme inhibition assay (in-house Kinase-Glo). It counts as biochemical.

For series [2], the system named is MDA-MB-231 human triple-negative breast xenograft tumors. The series is described as follows: MDA-MB-231 xenograft tumor model. The settings on record: 50 mg/kg QD, FOTO.
Protocol: as §1
Series [3] has as its system Hepa1–6 murine liver tumors. The series is described as follows: Hepa1–6 tumor model. The class given is in vivo, mice. The settings on record: 30 mg/kg orally QD, FOTO.
Protocol: as §1
The next series addresses T2, AXL (Homo sapiens, UniProt P30530).
T2 construct: A purified kinase (MER or AXL) was incubated with a compound or DMSO
T2 sequence (P30530 26-894): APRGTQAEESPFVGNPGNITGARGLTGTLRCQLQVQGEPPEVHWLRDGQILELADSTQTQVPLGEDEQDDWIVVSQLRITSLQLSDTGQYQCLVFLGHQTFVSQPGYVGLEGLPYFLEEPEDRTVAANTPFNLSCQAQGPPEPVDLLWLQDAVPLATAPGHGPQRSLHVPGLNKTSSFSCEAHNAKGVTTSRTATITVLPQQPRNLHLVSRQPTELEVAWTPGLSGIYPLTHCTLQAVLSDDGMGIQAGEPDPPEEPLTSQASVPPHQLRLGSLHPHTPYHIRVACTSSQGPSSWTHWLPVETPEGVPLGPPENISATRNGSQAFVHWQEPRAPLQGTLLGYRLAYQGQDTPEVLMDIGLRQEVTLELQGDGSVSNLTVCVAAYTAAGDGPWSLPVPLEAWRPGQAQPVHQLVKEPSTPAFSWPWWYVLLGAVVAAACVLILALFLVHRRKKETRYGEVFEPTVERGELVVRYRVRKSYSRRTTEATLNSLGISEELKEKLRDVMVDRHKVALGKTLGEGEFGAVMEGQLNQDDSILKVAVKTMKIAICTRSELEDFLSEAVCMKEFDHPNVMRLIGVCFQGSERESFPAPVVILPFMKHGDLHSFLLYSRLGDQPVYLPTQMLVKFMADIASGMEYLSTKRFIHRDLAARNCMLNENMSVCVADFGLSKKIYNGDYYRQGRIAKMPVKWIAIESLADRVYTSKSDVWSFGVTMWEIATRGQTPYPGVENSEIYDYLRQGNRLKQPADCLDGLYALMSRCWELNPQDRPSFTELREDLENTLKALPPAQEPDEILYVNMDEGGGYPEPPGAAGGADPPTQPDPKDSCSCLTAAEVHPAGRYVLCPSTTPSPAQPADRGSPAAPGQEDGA
The series is described as follows: AXL enzyme inhibition assay (ADP-Glo). The class given is biochemical.

Series [4] is described as follows: In vitro microsomal stability assay. It counts as in vitro ADME. The settings on record: 1 μM, mouse liver microsomes, percent remaining at 30 min. How it is done:
All incubations were initiated with the addition of NADPH-generating system at 37 °C for 30 min. At 0 and the end of incubation, 100 μL of aliquots were taken from the incubation mixture and placed into centrifuge tubes containing 100 μL of ice-cold acetonitrile to terminate the metabolic reaction. The samples were vortexed and centrifuged, and then, the supernatant injected onto LC/MS. Percent of remaining of each compound was calculated by comparing peak areas at 30 min to that at the initiation of incubation.

The test system of another series is Ba/F3-MER cells. The series is described as follows: Cell viability assay (MTS). It counts as cell-based. Conditions: 72 h.
Series [5] can be described thus: In vivo pharmacokinetics study. Conditions: mice; for clearance at 24 h: read-out: iv CL; for Vd at 24 h: read-out: iv Vss; for iv DNAUC(0–inf) / po DNAUC(0–inf) / po DNCmax: dose-normalized. How it is done:
The animal studies were performed according to NHRI institutional animal care and committee-approved procedures. Male ICR mice (25–35 g) were obtained from BioLASCO (Taiwan Co., Ltd., Ilan, Taiwan). […] All samples were analyzed for the parent drug by LC-MS/MS. Plasma concentration data were analyzed with a noncompartmental method.

[6] abbreviates: male, ICR, mouse, plasma, iv 2 mg/kg, po 10 mg/kg.
[7] abbreviates: male, ICR, mouse, plasma, iv 2 mg/kg.
Where [8] appears, read: male, ICR, mouse, plasma, iv 2 mg/kg, read-out: iv T1/2 (converted).
Setting [9] is: male, ICR, mouse, plasma, po 10 mg/kg.
[10] abbreviates: male, ICR, mouse, plasma, po 10 mg/kg, read-out: po T1/2 (converted).
Setting [11] is: male, ICR, mouse, plasma, iv 3 mg/kg.

Protocol for MC38 murine colon tumor: as §1

On to `COc1cc2nccc(Oc3ccc(NC(=O)c4cc5c(n(-c6ccccc6)c4=O)CCCC5=O)nc3)c2cc1OC` [Compound 8, tamnorzatinib], for which the “TGI, % of Vehicle Control” value was 45% and 44.8 ± 4.6% in the series on MC38 murine colon tumor (50 mg/kg orally QD, FOTO); 12% and 12.2 ± 3.7% in series [1]; 9% and 8.7 ± 4.7% in series [2]; 17% and 16.7 ± 12.0% in series [3]. Further, the IC50 against MER is 9.8 nM.
In the case of `CN1CCN(c2cccc(-c3c(-c4cnn(C)c4)oc4ncnc(Oc5ccc(NC(=O)c6cccn(-c7ccc(F)cc7)c6=O)cc5)c34)c2)CC1` [Compound 35, 1-(4-Fluorophenyl)-N-[4-({5-[3-(4-methylpiperazin-1-yl)phenyl]-6-(1-methyl-1H-pyrazol-4-yl)furo[2,3-d]pyrimidin-4-yl}oxy)phenyl]-2-oxo-1,2-dihydropyridine-3-carboxamide], the figures for the IC50 against AXL, against MER and in the series with Ba/F3-MER cells were 11.1 nM, 14.2 nM and 7.5 nM, respectively. Further, the “Microsomal stability @ 30 min” value in series [4] was 59%. Also, the bioavailability at 24 h in series [5] (setting [6]) is 14.8%. In series [5] (setting [7]), the clearance at 24 h came to 87.1 mL/min/kg. Also, the half-life at 24 h in series [5] (setting [8]) was 2.4 h; in series [5] (setting [10]), 4.3 h. In series [5] (setting [7]), the Vd at 24 h was determined as 7.4 L/kg. Further, the Tmax at 24 h in series [5] (setting [9]) was 2.7 h. Also, in series [5] (iv 2 mg/kg), the “iv DNAUC(0–inf)” value was found to be 221.0 ng·h/mL. Further, the “po DNAUC(0–inf)” value in series [5] (po 10 mg/kg) amounted to 32.8 ng·h/mL. Besides, the “po DNCmax” value in series [5] (po 10 mg/kg) is given as 4.5 ng/mL.
Turning to `Cn1cc(-c2oc3ncnc(Oc4ccc(NC(=O)c5cccn(-c6ccc(F)cc6)c5=O)cc4)c3c2-c2cccc(N)c2)cn1` [Compound 22, N-(4-{[5-(3-Aminophenyl)-6-(1-methyl-1H-pyrazol-4-yl)furo[2,3-d]pyrimidin-4-yl]oxy}phenyl)-1-(4-fluorophenyl)-2-oxo-1,2-dihydropyridine-3-carboxamide], the “body weight during treatment” value in the series on MC38 murine colon tumor (MC38 tumor-bearing mice, 25-50 mg/kg orally, 3 weeks) is listed as “No significant body weight loss; also recorded: well-tolerated without significant body weight loss”. Moreover, in [5] (setting [11]), the clearance at 24 h turned out to be 2.9 mL/min/kg and the Vd at 24 h worked out at 1.2 L/kg. The half-life at 24 h in series [5] (male, ICR, mouse, plasma, iv 3 mg/kg, read-out: iv T1/2 (converted)) is 6 h. Further, the bioavailability at 24 h in series [5] (male, ICR, mouse, plasma, iv and po 3 mg/kg) is 19.2%. In series [5] (male, ICR, mouse, plasma, po 3 mg/kg), the Tmax at 24 h stood at 4 h. For the same compound, in [5] (male, ICR, mouse, plasma, po 3 mg/kg, read-out: po T1/2 (converted)), the half-life at 24 h is 3.4 h. Also, the “iv DNAUC(0–inf)” value in [5] (iv 3 mg/kg) is on record as 3,985.3 ng × hr/mL. Also, in [5] (po 3 mg/kg), the “po DNAUC(0–inf)” value worked out at 764.0 ng·h/mL and the “po DNCmax” value is on record as 38.7 ng/mL.
As for `Cn1cc(-c2oc3ncnc(Oc4ccc(NC(=O)c5cccn(-c6ccc(F)cc6)c5=O)cc4)c3c2-c2cccc(N3CCNCC3)c2)cn1` [Compound 34, 1-(4-Fluorophenyl)-N-[4-({6-(1-methyl-1H-pyrazol-4-yl)-5-[3-(piperazin-1-yl)phenyl]furo[2,3-d]pyrimidin-4-yl}oxy)phenyl]-2-oxo-1,2-dihydropyridine-3-carboxamide], the half-maximal inhibitory concentration (IC50) at AXL was 12.1 nM; against MER it was 2.1 nM; with Ba/F3-MER cells, 8.4 nM. In addition, the “Microsomal stability @ 30 min” value in series [4] worked out at 83%. This compound also gave a bioavailability at 24 h in series [5] (setting [6]) of 0.6%. Further, the clearance at 24 h in series [5] (setting [7]) was determined as 42.9 mL/min/kg. The half-life at 24 h in series [5] (setting [8]) was 6.7 h; in [5] (setting [10]), 4.7 h. Moreover, the Vd at 24 h in [5] (setting [7]) was found to be 14.2 L/kg. Besides, in [5] (setting [9]), the Tmax came out at 2.2 h. In addition, the “iv DNAUC(0–inf)” value in series [5] (iv 2 mg/kg) is 454.5 ng·h/mL. Moreover, the “po DNAUC(0–inf)” value in series [5] (po 10 mg/kg) is 2.6 ng·h/mL. Besides, the “po DNCmax” value in [5] (po 10 mg/kg) stood at 0.7 ng/mL.
Consider `CC(=O)Nc1cccc(-c2c(-c3cnn(C)c3)oc3ncnc(Oc4ccc(NC(=O)c5cccn(-c6ccc(F)cc6)c5=O)cc4)c23)c1` [Compound 28, N-[4-({5-[3-(Acetylamino)phenyl]-6-(1-methyl-1H-pyrazol-4-yl)furo[2,3-d]pyrimidin-4-yl}oxy)phenyl]-1-(4-fluorophenyl)-2-oxo-1,2-dihydropyridine-3-carboxamide], for which the “Microsomal stability @ 30 min” value in series [4] is given as 91%. For the same compound, the half-maximal inhibitory concentration (IC50) in the series with Ba/F3-MER cells was found to be 1 nM. In series [5] (setting [7]), the clearance at 24 h came out at 20.5 mL/min/kg and the Vd at 24 h stood at 10.5 L/kg. Further, the half-life at 24 h in series [5] (setting [8]) was 12.7 h. In addition, the “iv DNAUC(0–inf)” value in [5] (iv 2 mg/kg) stood at 766.5 ng·h/mL.
As to `CNc1cccc(-c2c(-c3cnn(C)c3)oc3ncnc(Oc4ccc(NC(=O)c5cccn(-c6ccc(F)cc6)c5=O)cc4)c23)c1` [Compound 29, 1-(4-Fluorophenyl)-N-[4-({5-[3-(methylamino)phenyl]-6-(1-methyl-1H-pyrazol-4-yl)furo[2,3-d]pyrimidin-4-yl}oxy)phenyl]-2-oxo-1,2-dihydropyridine-3-carboxamide], the “Microsomal stability @ 30 min” value in series [4] stood at 100%. Half-maximal inhibition in the series with Ba/F3-MER cells (IC50) required 1.2 nM. The compound also gave a bioavailability at 24 h in series [5] (setting [6]) of 0.5%. Moreover, in series [5] (setting [7]), the clearance at 24 h came out at 5.3 mL/min/kg and the Vd at 24 h was found to be 1.3 L/kg. The half-life at 24 h in [5] (setting [8]) is 8.5 h. For the same compound, the Tmax at 24 h in series [5] (setting [9]) is 24 h. Further, the “iv DNAUC(0–inf)” value in series [5] (iv 2 mg/kg) was 3,330.5 ng × hr/mL. Also, in series [5] (po 10 mg/kg), the “po DNAUC(0–inf)” value worked out at 15.3 ng·h/mL and the “po DNCmax” value turned out to be 1.4 ng/mL.

The values are drawn from paper PMC11247487, “Discovery of Dual MER/AXL Kinase Inhibitors as Bifunctional Small Molecules for Inhibiting Tumor Growth and Enhancing Tumor Immune Microenvironment” (Journal of Medicinal Chemistry, 2024).
